# Reference: patent publication US20040024024A1, “Aromatic sulfone hydroxamates and their use as protease inhibitors” (priority 2001, published 2004)
# pIC50: −log10 of the molar value.
# Experiments:
# [1] = target: T1, Human recombinant MMP-2 (Homo sapiens, UniProt P08253); assay: In vitro MMP inhibition, IC50 determination (fluorogenic substrate I); format: biochemical
# T1 construct: made in house; host or cells: MMP-2-transfected p2AHT2 cells
# T1 sequence (P08253 110-660): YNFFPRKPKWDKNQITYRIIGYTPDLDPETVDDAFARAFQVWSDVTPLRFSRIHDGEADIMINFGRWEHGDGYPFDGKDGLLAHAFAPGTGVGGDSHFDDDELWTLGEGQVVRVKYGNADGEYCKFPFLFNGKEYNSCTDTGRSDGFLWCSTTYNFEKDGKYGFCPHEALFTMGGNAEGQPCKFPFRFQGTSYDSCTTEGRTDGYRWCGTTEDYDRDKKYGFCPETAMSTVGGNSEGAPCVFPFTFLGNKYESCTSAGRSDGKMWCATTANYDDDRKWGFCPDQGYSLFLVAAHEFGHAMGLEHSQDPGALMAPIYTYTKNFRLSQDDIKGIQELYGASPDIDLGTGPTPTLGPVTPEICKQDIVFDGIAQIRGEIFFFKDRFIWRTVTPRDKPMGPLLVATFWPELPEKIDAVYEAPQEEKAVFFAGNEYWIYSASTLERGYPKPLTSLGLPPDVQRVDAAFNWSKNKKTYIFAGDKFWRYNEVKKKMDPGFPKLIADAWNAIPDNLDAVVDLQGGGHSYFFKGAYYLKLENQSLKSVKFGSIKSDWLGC
# Experimental: (§1) Several hydroxamates and salts thereof were analyzed in in vitro assays to determine their ability to inhibit the MMP cleavage of peptide substrates. Inhibition (Ki) and IC50 constants were calculated from the assayed hydroxamate-MMP interactions.
# (§2) Human recombinant MMP-1, MMP-2, MMP-9, MMP-13, and MMP-14 were used in this assay. All enzymes were prepared in Assignee's laboratories following usual laboratory procedures. Protocols for the preparation and use of these enzymes are available in the scientific literature. See, e.g., Enzyme Nomenclature (Academic Press, San Diego, Calif., 1992) (and the citations therein). See also, Frije et al., J. Biol. Chem., 26(24), 16766-73 (1994).
# The MMP-2 proenzyme was purified by gelatin Sepharose chromatography from MMP-2-transfected p2AHT2 cells provided by Dr. Gregory Goldberg of Washington University (St. Louis, Mo.).
# (§3) All MMPs were activated using 4-aminophenylmercuric acetate (“APMA”, Sigma Chemical, St. Louis, Mo.) or trypsin. MMP-9 also was activated using human recombinant MMP-3 (purified in Assignee's laboratory following standard cloning and purification techniques).
# (§4) Two fluorogenic, methoxycoumarin-containing polypeptide substrates were used in the MMP inhibition assays:
# (§5) MCA-ProLeuGlyLeuDpaAlaArgNH2 (I)
# (§6) Here, “Dpa” is 3-(2,4-dinitrophenyl)-L-2,3-diaminopropionyl group, and “MCA” is 7-methoxycoumarin-4-yl acetyl. Substrate (I) was purchased from Baychem (Redwood City, Calif.), and substrate II was prepared Assignee's laboratory. Substrate I was used in the IC50 determination assays, while substrate II was used in the Ki determination assays. In the absence of MMP inhibitory activity, either substrate is cleaved at the Gly-Leu peptide bond. This cleavage separates the highly fluorogenic peptide from the 2,4-dinitrophenyl quencher, thus resulting in increase of fluorescent intensity.
# (§7) The stock solutions of the assayed hydroxamates (or salts thereof) were prepared in 1% dimethyl sulfoxide (DMSO). These stock solutions were diluted in Buffer A (100 mM Tris-HCl, 100 mM NaCl, 10 mM CaCl2, 0.05% polyoxyethylene 23 lauryl ether, pH 7.5) to obtain solutions with different hydroxamate concentrations, i.e., assay solutions with different concentrations of the assayed MMP inhibitory compound. The experiment controls contained the same amount of Buffer A/DMSO as the assayed sample, but contained no hydroxamate (or salt thereof).
# (§8) The assays from which the IC50 determinations were made were performed as follows. The MMPs were activated with either trypsin or APMA (4-aminophenylmercuric acetate, Sigma Chemical, St. Louis, Mo.). The assayed hydroxamate samples were, incubated in Microfluorrm White Plates (Dynatech, Chantilly, VA) and analyzed on a Perkin Elmer L550 plate reader (Norwalk, Conn.). The excitation wavelength was 328 nm, and the emission wavelength—415 nm. All samples (assayed hydroxamates and controls) were incubated in separate plates at room temperature in the presence of 4 μM of MMP substrate (I). As stated in the previous paragraph, samples containing varying concentrations of the same assayed hydroxamate were prepared. Inhibition was measured as a reduction in fluorescent intensity as a function of MMP inhibitor concentration.
# [2] = target: T2, Human recombinant MMP-13 (Homo sapiens, UniProt P45452); assay: as above; format: biochemical
# T2 construct: made in house; host or cells: baculovirus / insect cells
# Experimental: as §1, §2
# The expressed proenzyme was first purified over a heparin agarose column, and then over a chelating zinc chloride column. The proenzyme was then activated by APMA for use in the assay. Further details on baculovirus expression systems may be found in, for example, Luckow et al., J. Virol., 67, 4566-79 (1993). See also, O'Reilly et al, Baculovirus Expression Vectors: A Laboratory Manual (W. H. Freeman and Co., New York, N.Y., 1992). See also, King et al., The Baculovirus Expression System: A Laboratory Guide (Chapman & Hall, London, England, 1992).
# as §3, §4, §5, §6, §7, §8
# [3] = value outside parentheses (Ki in parenthesis)
pIC50 ([1]; value outside parentheses),pIC50 ([2]; value outside parentheses),"pIC50 [1, 3]","pIC50 [2, 3]",SMILES,further results
8.19,7.81,–,–,O=C(NCCSc1ccc(S(=O)(=O)C2(C(=O)NO)CCOCC2)cc1)c1cc2ccccc2[nH]1 [Example 593],–
–,–,–,–,O=C(NO)C1(S(=O)(=O)c2ccc(OCCCc3nc(-c4ccc(C(F)(F)F)cc4)no3)cc2)CCOCC1 [Example 239],pIC50 ([1]; value outside parenthesis): 6.63; pIC50 ([2]; value outside parenthesis): 8.60
–,–,8.66,7.83,O=C(NO)C1(S(=O)(=O)c2ccc(OCCCCCO)cc2)CCOCC1 [Example 452],–
–,–,8.33,8.05,O=C(NO)C1(S(=O)(=O)c2ccc(OCCCCO)cc2)CCOCC1 [Example 451],–
6.87,8.30,–,–,O=C(NO)C1(S(=O)(=O)c2ccc(OCCCc3cccc(N4CCNCC4)c3)cc2)CCN(C2CC2)CC1 [Example 641],–
–,–,6.31,6.72,O=C(c1cccc(C(F)(F)F)c1)N1CC[C@@H](Oc2ccc(S(=O)(=O)C3(C(=O)NO)CCOCC3)cc2)C1 [Example 424],–
–,–,6.10,8.10,CC(C)(C)c1ccc(C(=O)NCCCOc2ccc(S(=O)(=O)C3(C(=O)NO)CCOCC3)cc2)cc1 [Example 374],–
–,–,–,–,O=C(NCCCOc1ccc(S(=O)(=O)C2(C(=O)NO)CCOCC2)cc1)c1cc2ccccc2o1 [Example 101],pIC50 ([1]; value outside parenthesis): 7.74; pIC50 ([2]; value outside parenthesis): 9.70
–,–,7.90,8.17,O=C(CCCOc1ccc(S(=O)(=O)C2(C(=O)NO)CCOCC2)cc1)c1ccccc1-c1ccccc1 [Example 300],–
5.77,7.12,–,–,O=C(NO)C1(S(=O)(=O)c2ccc(OCCCc3cc(C(F)(F)F)cc(C(F)(F)F)c3)cc2)CCOCC1 [Example 573],–
–,–,7.30,8.00,CCOc1ccc(-c2nnc(CCCOc3ccc(S(=O)(=O)C4(C(=O)NO)CCOCC4)cc3)o2)cc1OCC [Example 303],–
–,–,7.74,> 10.00,O=C(NO)C1(S(=O)(=O)c2ccc(OCCCc3nc4cc5ccccc5cc4o3)cc2)CCOCC1 [Example 313],–
–,–,6.37,8.15,COc1ccccc1C(=O)NCCCOc1ccc(S(=O)(=O)C2(C(=O)NO)CCOCC2)cc1 [Example 363],–
–,–,–,–,COCCN1CCC(C(=O)NO)(S(=O)(=O)c2ccc(OCCCn3ccc(-c4ccc(OC)cc4)n3)cc2)CC1 [Example 223],pIC50 ([1]; value outside parenthesis): 7.16; pIC50 ([2]; value outside parenthesis): 7.92
–,–,–,–,COc1ccc(C(=O)C(C#N)CCOc2ccc(S(=O)(=O)C3(C(=O)NO)CCOCC3)cc2)cc1 (centres unmarked) [Example 176],pIC50 ([1]; value outside parenthesis): 6.96; pIC50 ([2]; value outside parenthesis): 8.11
5.95,7.94,–,–,O=C(NCCCOc1ccc(S(=O)(=O)C2(C(=O)NO)CCN(C3CC3)CC2)cc1)C1C2CC3CC(C2)CC1C3 (centres unmarked) [Example 643],–
–,–,5.22,6.52,C[C@@H](COc1ccc(S(=O)(=O)C2(C(=O)NO)CCOCC2)cc1)NC(=O)c1ccc(N(C)C)cc1 [Example 395],–
6.69,6.67,–,–,N=C(NCCOc1ccc(S(=O)(=O)C2(C(=O)NO)CCOCC2)cc1)c1ccccc1 [Example 600],–
–,–,7.21,8.10,O=C(NO)C1(S(=O)(=O)c2ccc(OCCCCN3CCCc4ccccc43)cc2)CCOCC1 [Example 413],–
7.85,8.80,–,–,O=C(Cc1nnn(Cc2ccccc2)n1)NCCOc1ccc(S(=O)(=O)C2(C(=O)NO)CCOCC2)cc1 [Example 565],–
–,–,–,–,Cc1cc(C)nc(SCCOc2ccc(S(=O)(=O)C3(C(=O)NO)CCOCC3)cc2)n1 [Example 283],pIC50 ([1]; value outside parenthesis): 6.73; pIC50 ([2]; value outside parenthesis): 7.53
8.12,8.82,–,–,CCN1CCC(C(=O)NO)(S(=O)(=O)c2ccc(OCCCSc3nc4ccccc4o3)cc2)CC1 [Example 525],–
–,–,–,–,C[C@@H]1C(=O)N(CCCOc2ccc(S(=O)(=O)C3(C(=O)NO)CCOCC3)cc2)C(=O)N1c1ccc(OC(F)(F)F)cc1 [Example 136],pIC50 ([1]; value outside parenthesis): 6.64; pIC50 ([2]; value outside parenthesis): 8.36
–,–,6.18,8.57,O=C(NCCCOc1ccc(S(=O)(=O)C2(C(=O)NO)CCOCC2)cc1)c1cc2cc(O)ccc2cc1O [Example 378],–
5.91,7.79,–,–,CC(C)CCCc1cccc(CCCOc2ccc(S(=O)(=O)C3(C(=O)NO)CCOCC3)cc2)c1 [Example 612],–
